Measured values reported in patent publication US6605722B2, “Tyrosine derivatives with anti-leukotrienen activity” (Rotta Research Laboratorium S.p.A., priority 2000, dated 2003).
Counter-ions that a name gives are not always drawn.

What was measured:
[1] = biological target: T1, peptide-leukotriene receptor (Cavia porcellus, UniProt Q2NNR5); experiment: Inhibition of the binding of [3H]-LTD4 to guinea-pig lung membranes; conditions: for IC50: 0.3 nM [3H]-LTD4, guinea-pig lung membranes, 30 minutes at 25° C., read-out: IC50, concentration of antagonist displacing 50% of the [3H]-LTD4 ligand from the receptor; for affinity compared with the specific LTD4 agonist: guinea-pig lung membranes, nanomolar level
T1 construct: from tissue; host or cells: guinea-pig lung membranes
T1 sequence (Q2NNR5 1-340): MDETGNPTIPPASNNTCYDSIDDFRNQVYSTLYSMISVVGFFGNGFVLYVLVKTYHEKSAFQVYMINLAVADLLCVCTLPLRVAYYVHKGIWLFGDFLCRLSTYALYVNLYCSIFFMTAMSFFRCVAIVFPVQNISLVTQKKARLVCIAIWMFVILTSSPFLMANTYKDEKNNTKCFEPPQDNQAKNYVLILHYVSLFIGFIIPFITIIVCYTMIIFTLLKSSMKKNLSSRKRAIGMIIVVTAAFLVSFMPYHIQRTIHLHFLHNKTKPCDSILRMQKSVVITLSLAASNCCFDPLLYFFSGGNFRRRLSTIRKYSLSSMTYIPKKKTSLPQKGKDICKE
Description: The method described by Frey et al. [Eur. J. Pharmacol. 244 (1993): 239-250] was followed, with slight modifications.
The separation of the bound from the free was performed by rapid filtration on Whatman GF/B paper filters.

[2] = Plasma levels in rats (oral bio-availability); format: in vivo; conditions: 20 mg/kg
Description: In addition to the potency shown in vitro in the models given by way of example above, an advantageous and important characteristic of the compounds of the present invention is their optimal oral bio-availability. Thus, for example, Compound 1, administered to rats at a dose of 20 mg/kg, provided a maximum plasma concentration (CMAX) of about 20 mcg/ml 1 hour after administration.

[3] = system: contractions induced by LTD4 on isolated guinea-pig trachea; experiment: Antagonism of contractions induced by LTD4 on isolated guinea-pig trachea in vitro (Schild analysis); conditions: for pA2 calculated according to Schild: LTD4 contraction; for pA2 calculated according to Schild / ED50 of LTD4 (cumulative dose-response curve): isolated guinea-pig trachea
Description: J. Physiol. Pharmacol. 67 (1989): 17-28], with slight modifications. […] The results were expressed as the effect as a percentage of the maximum contraction induced by 300 μM acetylcholine.

[4] = Acute toxicity (LD50) in mice; format: in vivo; conditions: mouse, in vivo
Description: (§1) The compounds according to the invention also have a low toxicity profile.

mice = experiment: Acute toxicity (LD50) in mice; format: in vivo; conditions: oral route; effective dose 0.3 mg/kg
Description: as §1

[5] = system: sensitized guinea-pigs (ovalbumin challenge); experiment: Bronchoconstriction after aerosolized ovalbumin challenge in sensitized guinea-pigs; format: in vivo; conditions: 0.3 mg/kg orally 30 minutes before aerosolized ovalbumin challenge
[6] = antagonist concentration 100 nM

SMILES | melting point | IC50 [1] [µM] | other results
O=C(NC(Cc1ccc(OCc2ccc3ccccc3n2)cc1)C(=O)O)c1ccccc1 (stereo not shown) (as salt: hydrochloride) [Compound 2] | 140 °C |  | 
O=C(NC(Cc1ccc(OCc2ccc3ccccc3n2)cc1)C(=O)O)c1ccc(-c2ccccc2)cc1 (stereo not shown) (as salt: hydrochloride) [Compound 8] | 230 °C (dec.) |  | 
O=C(NC(Cc1ccc(OCc2ccc3ccccc3n2)cc1)C(=O)O)c1ccc2ccccc2n1 (racemic) [Compound 1, O-(2-quinolinylmethyl)-N-quinaldoyl-D,L-tyrosine] |  | 0.02 | time of maximum plasma concentration after administration [2]: 1 h; AUC ([2]; rat, plasma, oral): ~50000 ng·h/mL; concentration at 8 h ([2]; rat, plasma, oral, 8 h, read-out: plasma concentration 8 h after administration): > 2000 ng/mL; Cmax ([2]; rat, plasma, oral, read-out: maximum plasma concentration (CMAX)): ~20000 ng/mL; pA2 calculated according to Schild [3]: pA2 = 7.88; ED50 of LTD4 (cumulative dose-response curve) ([3]; antagonist concentration 10 nM): 0.00453 µM; ED50 of LTD4 (cumulative dose-response curve) ([3]; antagonist concentration 30 nM): 0.01531 µM; ED50 of LTD4 (cumulative dose-response curve) [3, 6]: 0.03175 µM
O=C(NC(Cc1ccc(OCc2ccc3ccc(F)cc3n2)cc1)C(=O)O)c1ccc2ccccc2n1 (racemic) [Compound 17, O-(7-fluoro-2-quinolinylmethyl)-N-quinaldoyl-D,L-tyrosine] |  | 0.0079 | affinity compared with the specific LTD4 agonist [1]: comparable; LD50 ([4]; iv): > 50 mg/kg; LD50 ([4]; po): > 300 mg/kg; acute toxic oral dose in mice relative to the pharmacologically effective dose (mice): more than 1000 times; inhibition of the signs of bronchoconstriction (first appearance of abdominal contractions) [5]: completely inhibited; pA2 calculated according to Schild [3]: pA2 = 8.53; ED50 of LTD4 (cumulative dose-response curve) ([3]; antagonist concentration 3 nM): 0.00469 µM; ED50 of LTD4 (cumulative dose-response curve) ([3]; antagonist concentration 30 nM): 0.00948 µM; ED50 of LTD4 (cumulative dose-response curve) ([3]; antagonist concentration 300 nM): 0.01978 µM
O=C(NC(Cc1ccc(OCc2ccc3ccccc3n2)cc1)C(=O)O)c1ccccc1 (stereo not shown) [Compound 2] |  | 0.19 | 
O=C(NC(Cc1ccc(OCc2ccc3ccccc3n2)cc1)C(=O)O)c1ccc(Cl)cc1 (stereo not shown) [Compound 3] | 197 °C | 0.0981 | 
O=C(NC(Cc1ccc(OCc2ccc3ccccc3n2)cc1)C(=O)O)c1cccc(Cl)c1 (stereo not shown) [Compound 4] | 187 °C | 0.11 | 
COc1ccc(C(=O)NC(Cc2ccc(OCc3ccc4ccccc4n3)cc2)C(=O)O)cc1 (stereo not shown) [Compound 5] | 212 °C | 0.117 | 
O=C(NC(Cc1ccc(OCc2ccc3ccccc3n2)cc1)C(=O)O)c1ccc(C(F)(F)F)cc1 (stereo not shown) [Compound 6] | 211 °C | 0.0427 | 
O=C(NC(Cc1ccc(OCc2ccc3ccccc3n2)cc1)C(=O)O)c1ccccc1-c1ccccc1 (stereo not shown) [Compound 7] | 155 °C | 0.181 | 
O=C(NC(Cc1ccc(OCc2ccc3ccccc3n2)cc1)C(=O)O)c1ccc(-c2ccccc2)cc1 (stereo not shown) [Compound 8] |  | 0.0617 | 
O=C(NC(Cc1ccc(OCc2ccc3ccc(Cl)cc3n2)cc1)C(=O)O)c1ccc(-c2ccccc2)cc1 (stereo not shown) [Compound 9] | 193 °C | 0.217 | 
O=C(NC(Cc1ccc(OCc2ccc3ccccc3n2)cc1)C(=O)O)c1ccccn1 (stereo not shown) [Compound 10] | 171 °C | 0.0323 | 
O=C(NC(Cc1ccc(OCc2ccc3ccccc3n2)cc1)C(=O)O)c1ccc2ccccc2c1 (stereo not shown) [Compound 11] | 196 °C | 0.039 | 
O=C(NC(Cc1ccc(OCc2ccc3ccccc3n2)cc1)C(=O)O)c1cnc2ccccc2c1 (stereo not shown) [Compound 12] | 230 °C | 0.076 | 
O=C(NC(Cc1ccc(OCc2ccc3ccccc3n2)cc1)C(=O)O)c1ccc2ncccc2c1 (stereo not shown) [Compound 13] | 248 °C | 0.135 | 
O=C(NC(Cc1ccc(OCc2ccc3ccccc3n2)cc1)C(=O)O)c1cccc2cccnc12 (stereo not shown) [Compound 14] | 141 °C (dec.) | 0.064 | 
Cc1ccc2ccc(COc3ccc(CC(NC(=O)c4ccc5ccccc5n4)C(=O)O)cc3)nc2c1 (stereo not shown) [Compound 15] | 214 °C | 0.0113 | 
O=C(NC(Cc1ccc(OCc2ccc3ccccc3n2)cc1)C(=O)O)c1ccnc2ccccc12 (stereo not shown) [Compound 16] | 224 °C | 0.2 | 
O=C(N[C@@H](Cc1ccc(OCc2ccc3ccc(F)cc3n2)cc1)C(=O)O)c1ccc2ccccc2n1 [Compound 18, O-(7-fluoro-2-quinolinylmethyl)-N-quinaldoyl-L-tyrosine] |  | 0.0055 | affinity compared with the specific LTD4 agonist [1]: comparable

Now from value to compound, other results behind:

melting point | IC50 [1] [µM] | SMILES | other results
 | 0.0122 | O=C(N[C@H](Cc1ccc(OCc2ccc3ccc(F)cc3n2)cc1)C(=O)O)c1ccc2ccccc2n1 [Compound 19, O-(7-fluoro-2-quinolinylmethyl)-N-quinaldoyl-D-tyrosine] | 
157 °C | 0.0641 | O=C(NC(Cc1ccc(OCc2ccc3ccccc3n2)cc1)C(=O)O)c1nccc2ccccc12 (stereo not shown) [Compound 20] | 
204 °C | 0.0097 | O=C(NC(Cc1ccc(OCc2ccc3ccccc3n2)cc1)C(=O)O)c1cc2ccccc2cn1 (stereo not shown) [Compound 21] | 
227 °C | 0.0053 | O=C(NC(Cc1ccc(OCc2ccc3ccc(F)cc3n2)cc1)C(=O)O)c1cc2ccccc2cn1 (stereo not shown) [Compound 22] | affinity compared with the specific LTD4 agonist [1]: comparable; Kb ([3]; Cavia porcellus, equivalent to the calculated pA2): 0.00173 µM; ED50 of LTD4 (cumulative dose-response curve) ([3]; antagonist concentration 10 nM): 0.00803 µM; ED50 of LTD4 (cumulative dose-response curve) ([3]; antagonist concentration 30 nM): 0.01371 µM; ED50 of LTD4 (cumulative dose-response curve) [3, 6]: 0.02539 µM
223 °C | 0.103 | O=C(NC(Cc1ccc(OCc2ccc3ccccc3n2)cc1)C(=O)O)c1cc2ccccc2[nH]1 (stereo not shown) [Compound 23] | 
226 °C | 0.0553 | O=C(NC(Cc1ccc(OCc2ccc3ccccc3n2)cc1)C(=O)O)c1c[nH]c2ccccc12 (stereo not shown) [Compound 24] | 
198 °C | 0.0348 | Cn1c(C(=O)NC(Cc2ccc(OCc3ccc4ccccc4n3)cc2)C(=O)O)cc2ccccc21 (stereo not shown) [Compound 25] | 
180 °C | 0.0508 | Cn1cc(C(=O)NC(Cc2ccc(OCc3ccc4ccccc4n3)cc2)C(=O)O)c2ccccc21 (stereo not shown) [Compound 26] | 
> 240 °C | 0.161 | O=C(NC(Cc1ccc(OCc2ccc3ccccc3n2)cc1)C(=O)O)c1cnc2ccccc2n1 (stereo not shown) [Compound 27] | 
232 °C | > 0.3 | O=C(NC(Cc1ccc(OCc2ccc3ccccc3n2)cc1)C(=O)O)c1cnnc2ccccc12 (stereo not shown) [Compound 28] | 
> 250 °C | 0.0903 | O=C(NC(Cc1ccc(OCc2ccc3ccccc3n2)cc1)C(=O)O)c1ccc2nc[nH]c2c1 (stereo not shown) [Compound 29] | 
170 °C | 0.0241 | O=C(NC(Cc1ccc(OCc2ccc3ccccc3n2)cc1)C(=O)O)c1ccc(-c2ccccc2)cn1 (stereo not shown) [Compound 30] | 
